Laboratory results as given in PubChem BioAssay (NCI).
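Following 48 hours of exposure in 96-well plates, responses at five concentrations were used to interpolate endpoints linearly. TGI marks complete inhibition of growth.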

How the values were obtained:
Test in all cases: growth of human tumour cells (NCI), 48 h
HCT-15 colon = tested on: HCT-15 colon
U251 CNS = tested on: U251 CNS
MOLT-4 leukemia = tested on: MOLT-4 leukemia
PC-3 prostate = tested on: PC-3 prostate
HCC-2998 colon = tested on: HCC-2998 colon
MDA-N = tested on: MDA-N
SR leukemia = tested on: SR leukemia
HS 578T breast = tested on: HS 578T breast
TK-10 renal = tested on: TK-10 renal
SK-MEL-2 melanoma = tested on: SK-MEL-2 melanoma
OVCAR-5 ovarian = tested on: OVCAR-5 ovarian
DU-145 prostate = tested on: DU-145 prostate
NCI-H226 lung = tested on: NCI-H226 lung
SN12C renal = tested on: SN12C renal
SK-MEL-5 melanoma = tested on: SK-MEL-5 melanoma
NCI-H522 lung = tested on: NCI-H522 lung
KM12 colon = tested on: KM12 colon
A549 NSCLC = tested on: A549 NSCLC
OVCAR-3 ovarian = tested on: OVCAR-3 ovarian
SF-268 CNS = tested on: SF-268 CNS
OVCAR-8 ovarian = tested on: OVCAR-8 ovarian
SW-620 colon = tested on: SW-620 colon
EKVX NSCLC = tested on: EKVX NSCLC
M14 melanoma = tested on: M14 melanoma
SK-MEL-28 melanoma = tested on: SK-MEL-28 melanoma
HCT-116 colon = tested on: HCT-116 colon
MDA-MB-435 = tested on: MDA-MB-435
UACC-62 melanoma = tested on: UACC-62 melanoma
RPMI-8226 leukemia = tested on: RPMI-8226 leukemia
NCI-H23 lung = tested on: NCI-H23 lung
UO-31 renal = tested on: UO-31 renal
SNB-75 CNS = tested on: SNB-75 CNS
IGROV1 ovarian = tested on: IGROV1 ovarian
SK-OV-3 ovarian = tested on: SK-OV-3 ovarian
SNB-19 CNS = tested on: SNB-19 CNS
ACHN renal = tested on: ACHN renal
NCI-H460 lung = tested on: NCI-H460 lung
SF-295 CNS = tested on: SF-295 CNS
BT-549 breast = tested on: BT-549 breast
HOP-62 NSCLC = tested on: HOP-62 NSCLC
LOX IMVI melanoma = tested on: LOX IMVI melanoma
MDA-MB-231 breast = tested on: MDA-MB-231 breast
MALME-3M melanoma = tested on: MALME-3M melanoma
MCF7 breast = tested on: MCF7 breast
NCI/ADR-RES ovarian = tested on: NCI/ADR-RES ovarian
COLO 205 colon = tested on: COLO 205 colon
OVCAR-4 ovarian = tested on: OVCAR-4 ovarian
HT29 colon = tested on: HT29 colon
A498 renal = tested on: A498 renal
CCRF-CEM leukemia = tested on: CCRF-CEM leukemia
T-47D breast = tested on: T-47D breast
RXF 393 renal = tested on: RXF 393 renal
HOP-92 NSCLC = tested on: HOP-92 NSCLC
SF-539 CNS = tested on: SF-539 CNS
786-0 renal = tested on: 786-0 renal
UACC-257 melanoma = tested on: UACC-257 melanoma
CAKI-1 renal = tested on: CAKI-1 renal
HL-60(TB) leukemia = tested on: HL-60(TB) leukemia
K-562 leukemia = tested on: K-562 leukemia

Question: Which results are given for `CCc1cccc(C(C)C)c1NC(=O)C(=O)C1C(=O)Nc2ccccc2S1=O` (configuration not stated)?
Answer: TGI (HCT-15 colon): > 100 µM; TGI (U251 CNS): > 100 µM; TGI (MOLT-4 leukemia): > 100 µM; TGI (PC-3 prostate): > 100 µM; TGI (HCC-2998 colon): > 100 µM; TGI (MDA-N): > 100 µM; TGI (SR leukemia): > 100 µM; TGI (HS 578T breast): > 100 µM; TGI (TK-10 renal): > 100 µM; TGI (SK-MEL-2 melanoma): > 100 µM; TGI (OVCAR-5 ovarian): > 100 µM; TGI (DU-145 prostate): > 100 µM; TGI (NCI-H226 lung): > 100 µM; TGI (SN12C renal): > 100 µM; TGI (SK-MEL-5 melanoma): > 100 µM; TGI (NCI-H522 lung): > 100 µM; TGI (KM12 colon): > 100 µM; TGI (A549 NSCLC): > 100 µM; TGI (OVCAR-3 ovarian): > 100 µM; TGI (SF-268 CNS): > 100 µM; TGI (OVCAR-8 ovarian): > 100 µM; TGI (SW-620 colon): > 100 µM; TGI (EKVX NSCLC): > 100 µM; TGI (M14 melanoma): > 100 µM; TGI (SK-MEL-28 melanoma): > 100 µM; TGI (HCT-116 colon): > 100 µM; TGI (MDA-MB-435): > 100 µM; TGI (UACC-62 melanoma): > 100 µM; TGI (RPMI-8226 leukemia): > 100 µM; TGI (NCI-H23 lung): > 100 µM; TGI (UO-31 renal): > 100 µM; TGI (SNB-75 CNS): > 100 µM; TGI (IGROV1 ovarian): > 100 µM; TGI (SK-OV-3 ovarian): > 100 µM; TGI (SNB-19 CNS): > 100 µM; TGI (ACHN renal): > 100 µM; TGI (NCI-H460 lung): > 100 µM; TGI (SF-295 CNS): > 100 µM; TGI (BT-549 breast): > 100 µM; TGI (HOP-62 NSCLC): > 100 µM; TGI (LOX IMVI melanoma): > 100 µM; TGI (MDA-MB-231 breast): > 100 µM; TGI (MALME-3M melanoma): > 100 µM; TGI (MCF7 breast): > 100 µM; TGI (NCI/ADR-RES ovarian): > 100 µM; TGI (COLO 205 colon): > 100 µM; TGI (OVCAR-4 ovarian): > 100 µM; TGI (HT29 colon): > 100 µM; TGI (A498 renal): > 100 µM; TGI (CCRF-CEM leukemia): > 100 µM; TGI (T-47D breast): > 100 µM; TGI (RXF 393 renal): > 100 µM; TGI (HOP-92 NSCLC): > 100 µM; TGI (SF-539 CNS): > 100 µM; TGI (786-0 renal): > 100 µM; TGI (UACC-257 melanoma): > 100 µM; TGI (CAKI-1 renal): > 100 µM

Question: Which TGI (HCT-15 colon) does the source give for `COc1ccc(C2SC(N)=Nc3c2c(C)nn3C(=O)c2ccccc2O)cc1OC` (configuration not stated) here?
Answer: > 10 µM

Question: And the TGI (U251 CNS)?
Answer: > 10 µM

Question: What about the TGI (MOLT-4 leukemia) of the same compound?
Answer: > 10 µM

Question: What about the TGI (PC-3 prostate) of the same compound?
Answer: > 10 µM

Question: And the TGI (MDA-N)?
Answer: > 10 µM

Question: And the TGI (SR leukemia)?
Answer: > 10 µM

Question: What about the TGI (HS 578T breast) of the same compound?
Answer: 5.11 µM

Question: What about the TGI (HL-60(TB) leukemia) of the same compound?
Answer: > 10 µM

Question: And the TGI (TK-10 renal)?
Answer: > 10 µM

Question: What about the TGI (SK-MEL-2 melanoma) of the same compound?
Answer: > 10 µM

Question: What about the TGI (OVCAR-5 ovarian) of the same compound?
Answer: > 10 µM

Question: And the TGI (DU-145 prostate)?
Answer: > 10 µM

Question: What about the TGI (NCI-H226 lung) of the same compound?
Answer: > 10 µM

Question: What about the TGI (SN12C renal) of the same compound?
Answer: > 10 µM

Question: And the TGI (KM12 colon)?
Answer: > 10 µM

Question: What about the TGI (A549 NSCLC) of the same compound?
Answer: > 10 µM

Question: What about the TGI (OVCAR-3 ovarian) of the same compound?
Answer: > 10 µM

Question: And the TGI (SF-268 CNS)?
Answer: > 10 µM

Question: What about the TGI (K-562 leukemia) of the same compound?
Answer: > 10 µM

Question: What about the TGI (SW-620 colon) of the same compound?
Answer: > 10 µM

Question: What about the TGI (EKVX NSCLC) of the same compound?
Answer: > 10 µM

Question: What about the TGI (M14 melanoma) of the same compound?
Answer: > 10 µM

Question: What about the TGI (SK-MEL-28 melanoma) of the same compound?
Answer: > 10 µM

Question: What about the TGI (HCT-116 colon) of the same compound?
Answer: 7.47 µM

Question: And the TGI (MDA-MB-435)?
Answer: > 10 µM

Question: And the TGI (UACC-62 melanoma)?
Answer: 7.93 µM

Question: What about the TGI (RPMI-8226 leukemia) of the same compound?
Answer: > 10 µM

Question: What about the TGI (NCI-H23 lung) of the same compound?
Answer: > 10 µM

Question: And the TGI (UO-31 renal)?
Answer: > 10 µM

Question: And the TGI (SNB-75 CNS)?
Answer: 9.32 µM

Question: What about the TGI (IGROV1 ovarian) of the same compound?
Answer: > 10 µM

Question: And the TGI (SK-OV-3 ovarian)?
Answer: > 10 µM

Question: And the TGI (SNB-19 CNS)?
Answer: > 10 µM

Question: What about the TGI (ACHN renal) of the same compound?
Answer: > 10 µM

Question: What about the TGI (NCI-H460 lung) of the same compound?
Answer: > 10 µM

Question: And the TGI (SF-295 CNS)?
Answer: > 10 µM

Question: What about the TGI (BT-549 breast) of the same compound?
Answer: > 10 µM

Question: What about the TGI (HOP-62 NSCLC) of the same compound?
Answer: > 10 µM

Question: What about the TGI (LOX IMVI melanoma) of the same compound?
Answer: > 10 µM

Question: And the TGI (MDA-MB-231 breast)?
Answer: > 10 µM

Question: And the TGI (MALME-3M melanoma)?
Answer: > 10 µM

Question: And the TGI (MCF7 breast)?
Answer: > 10 µM

Question: And the TGI (NCI/ADR-RES ovarian)?
Answer: > 10 µM

Question: And the TGI (COLO 205 colon)?
Answer: > 10 µM

Question: What about the TGI (OVCAR-4 ovarian) of the same compound?
Answer: > 10 µM

Question: What about the TGI (HT29 colon) of the same compound?
Answer: > 10 µM

Question: And the TGI (A498 renal)?
Answer: > 10 µM

Question: What about the TGI (CCRF-CEM leukemia) of the same compound?
Answer: > 10 µM

Question: What about the TGI (T-47D breast) of the same compound?
Answer: > 10 µM

Question: And the TGI (RXF 393 renal)?
Answer: > 10 µM

Question: And the TGI (HOP-92 NSCLC)?
Answer: 4.36 µM

Question: What about the TGI (SF-539 CNS) of the same compound?
Answer: > 10 µM

Question: And the TGI (786-0 renal)?
Answer: > 10 µM

Question: What about the TGI (UACC-257 melanoma) of the same compound?
Answer: > 10 µM

Question: And the TGI (CAKI-1 renal)?
Answer: > 10 µM
